Counter-ions that a name gives are not always drawn.
target: human SERT (Homo sapiens, UniProt P31645); assay: Inhibitory activity assay against 5-HT transporter (neurotransmitter transporter uptake assay kit); format: cell-based; conditions: HEK-293 cells overexpressing human SERT; read-out: 5-HTT (IC50)
Procedure: In HEK-293 cells overexpressing human SERT, the transporter inhibitory effect of the test compound on human SERT was assayed using a Neurotransmitter transporter uptake assay kit (Molecular devices).

Sequence of human SERT (P31645 whole entry): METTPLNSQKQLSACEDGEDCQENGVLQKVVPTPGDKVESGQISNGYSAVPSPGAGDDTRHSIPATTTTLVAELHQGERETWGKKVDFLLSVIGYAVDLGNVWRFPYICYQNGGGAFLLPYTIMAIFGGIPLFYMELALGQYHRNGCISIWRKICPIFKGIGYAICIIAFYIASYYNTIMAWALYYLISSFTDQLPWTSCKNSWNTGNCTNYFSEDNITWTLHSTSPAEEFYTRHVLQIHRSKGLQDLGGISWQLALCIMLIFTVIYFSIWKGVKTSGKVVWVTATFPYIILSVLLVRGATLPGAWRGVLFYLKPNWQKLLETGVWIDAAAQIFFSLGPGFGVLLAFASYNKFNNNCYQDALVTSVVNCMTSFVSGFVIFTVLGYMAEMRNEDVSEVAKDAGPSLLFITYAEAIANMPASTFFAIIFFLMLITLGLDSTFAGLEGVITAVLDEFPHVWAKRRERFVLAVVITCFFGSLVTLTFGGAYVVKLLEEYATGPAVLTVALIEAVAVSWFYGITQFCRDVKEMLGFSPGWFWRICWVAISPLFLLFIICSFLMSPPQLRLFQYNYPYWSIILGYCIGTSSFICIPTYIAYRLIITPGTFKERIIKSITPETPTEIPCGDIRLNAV

Row | Structure (SMILES) | IC50 [µM]
1 | N#Cc1cccc(C2(N)CCc3nc(N)sc3C2)c1 (racemic) | 8.9
2 | NC1(c2ccccc2)CCc2nc(O)sc2C1 (racemic) [rac-A8, 6-amino-6-phenyl-4,5,6,7-tetrahydrobenzothiazol-2-ol] | 0.007
3 | CN(Cc1ccccc1)C1(c2ccccc2)CCc2[nH]ncc2C1 (racemic) [rac-A68, N-benzyl-N-methyl-5-phenyl-4,5,6,7-tetrahydro-1H-indazol-5-amine] | 0.7
4 | CNC1(c2ccccc2F)CCc2nc(N)sc2C1 (racemic) [rac-A81, 6-(2-fluorophenyl)-N^6-methyl-4,5,6,7-tetrahydrobenzothiazole-2,6-diamine] | 0.094
5 | CNC1(c2cccc(OC)c2)CCc2nc(N)sc2C1 (racemic) [rac-A88, 6-(3-methoxyphenyl)-N^6-methyl-4,5,6,7-tetrahydrobenzothiazole-2,6-diamine] | 0.9
6 | COc1ccc(C2(N)CCc3nc(N)sc3C2)cc1 (racemic) [rac-A89, 6-(4-methoxyphenyl)-4,5,6,7-tetrahydrobenzothiazole-2,6-diamine] | 7.6
7 | CNC1(c2cccc(C(F)(F)F)c2)CCc2nc(N)sc2C1 (racemic) [rac-A94, 6-(3-trifluoromethylphenyl)-N^6-methyl-4,5,6,7-tetrahydrobenzothiazole-2,6-diamine hydrobromide] | 4.3
8 | Nc1nc2c(s1)CC(N)(c1cccnc1)CC2 (racemic) [rac-A98, 6-(pyridin-3-yl)-4,5,6,7-tetrahydrobenzothiazole-2,6-diamine] | 16
9 | Cc1ccccc1C1(N)CCc2nc(N)sc2C1 (racemic) [rac-A100, 6-(2-methylphenyl)-4,5,6,7-tetrahydrobenzothiazole-2,6-diamine] | 17
10 | Nc1nc2c(s1)CC(N)(c1ccc3ccccc3c1)CC2 (racemic) [rac-A118, 6-(naphthalen-2-yl)-4,5,6,7-tetrahydrobenzothiazole-2,6-diamine] | 2
11 | NC1(c2ccccc2)CCc2nc(C(F)(F)F)sc2C1 (racemic) [rac-A131, 6-phenyl-2-(trifluoromethyl)-4,5,6,7-tetrahydrobenzo[d]thiazol-6-amine hydrochloride] | 3.6
12 | NC1(c2ccccc2)CCc2scnc2C1 (racemic) [rac-A134, 5-phenyl-4,5,6,7-tetrahydrobenzo[d]thiazol-5-amine] | 17
13 | NC1(c2ccccc2)CCc2oncc2C1 (racemic) [rac-A145, phenyl-4,5,6,7-tetrahydrobenzo[d]isoxazol-5-amine] | 0.6
14 | NC1(c2ccc(F)cc2)CCCc2cn[nH]c21 (racemic) [rac-A222, 7-(4-fluorophenyl)-4,5,6,7-tetrahydro-1H-indazol-7-amine] | 10
15 | COc1nc2c(s1)CC(N)(c1ccccc1)CC2 (racemic) [rac-A225, 2-methoxy-6-phenyl-4,5,6,7-tetrahydrobenzo[d]thiazol-6-amine] | 1
16 | CN(C)C1(c2ccccc2)CCc2ncsc2C1 (racemic) [rac-A233, N,N-dimethyl-6-phenyl-4,5,6,7-tetrahydrobenzo[d]thiazol-6-amine] | 0.3
17 | Nc1nc2c(s1)CC(N)(c1ccc(F)cc1F)CC2 (racemic) [rac-A235, 6-(2,4-difluorophenyl)-4,5,6,7-tetrahydrobenzo[d]thiazole-2,6-diamine] | 5.9
18 | CNC1(c2ccc(F)cc2F)CCc2nc(N)sc2C1 (racemic) [rac-A236, 6-(2,4-difluorophenyl)-N^6-methyl-4,5,6,7-tetrahydrobenzo[d]thiazole-2,6-diamine] | 2.8

Row | Structure (SMILES) | IC50 [µM]
19 | NC1(c2ccccc2)CCc2nnsc2C1 (racemic) [rac-A244, 6-phenyl-4,5,6,7-tetrahydrobenzo[d][1,2,3]thiadiazol-6-amine hydrochloride] | 1.5
20 | CN(C)C1(c2ccccc2)CCc2sc(N)nc2C1 (racemic) [rac-A249, N^5, N^5-dimethyl-5-phenyl-4,5,6,7-tetrahydrobenzo[d]thiazole-2,5-diamine] | 1
21 | CNC1(c2ccc(OC)c(OC)c2)CCc2nc(N)sc2C1 (racemic) [rac-A254, 6-(3,4-dimethoxyphenyl)-N^6-methyl-4,5,6,7-tetrahydrobenzo[d]thiazole-2,6-diamine] | 2
22 | CCOc1nc2c(s1)CC(N)(c1ccccc1)CC2 (racemic) [rac-A257, 2-ethoxy-6-phenyl-4,5,6,7-tetrahydrobenzo[d]thiazol-6-amine] | 0.3
23 | COc1cccc(C2(N)CCc3nc(O)sc3C2)c1 (racemic) [rac-A262, 6-amino-6-(3-methoxyphenyl)-4,5,6,7-tetrahydrobenzo[d]thiazol-2-ol] | 0.14
24 | CNC1(c2cccc(OC)c2)CCc2ncsc2C1 (racemic) [rac-A273, 6-(3-methoxyphenyl)-N-methyl-4,5,6,7-tetrahydrobenzo[d]thiazol-6-amine hydrochloride] | 1
25 | CNC1(c2ccccc2)CCc2nc(O)sc2C1 (racemic) [rac-A279, 6-(methylamino)-6-phenyl-4,5,6,7-tetrahydrobenzo[d]thiazol-2-ol] | 0.028
26 | CNC1(c2ccc(F)cc2)CCc2ncsc2C1 (racemic) [rac-A294, 6-(4-fluorophenyl)-N-methyl-4,5,6,7-tetrahydrobenzo[d]thiazol-6-amine] | 1.1
27 | CCOc1cccc(C2(N)CCc3nc(O)sc3C2)c1 (racemic) [rac-A295, 6-amino-6-(3-ethoxyphenyl)-4,5,6,7-tetrahydrobenzo[d]thiazol-2-ol hydrochloride] | 0.11
28 | COc1cccc(C2(N)CCc3c(sc(=O)n3C)C2)c1 (racemic) [rac-A299, 6-amino-6-(3-methoxyphenyl)-3-methyl-4,5,6,7-tetrahydrobenzo[d]thiazol-2-one hydrochloride] | 0.52
29 | COc1cccc(C2(N)CCc3nc(NC(C)=O)sc3C2)c1 (racemic) [rac-A300, N-(6-amino-6-(3-methoxyphenyl)-4,5,6,7-tetrahydrobenzo[d]thiazol-2-yl)acetamide] | 2.1
30 | CCNc1nc2c(s1)CC(N)(c1cccc(OC)c1)CC2 (racemic) [rac-A301, N^2-ethyl-6-(3-methoxyphenyl)-4,5,6,7-tetrahydrobenzo[d]thiazole-2,6-diamine hydrochloride] | 4
31 | CSc1cccc(C2(N)CCc3nc(N)sc3C2)c1 (racemic) [rac-A304, 6-(3-methylthio)phenyl-4,5,6,7-tetrahydrobenzo[d]thiazole-2,6-diamine] | 3.7
32 | NC1(c2cccc(O)c2)CCc2nc(O)sc2C1 (racemic) [rac-A306, 6-amino-6-(3-hydroxyphenyl)-4,5,6,7-tetrahydrobenzo[d]thiazol-2-ol] | 0.2
33 | COc1cccc(C2(N)CCc3nc(N)sc3C2)n1 (racemic) [rac-A310, 6-(6-methoxypyridin-2-yl)-4,5,6,7-tetrahydrobenzo[d]thiazole-2,6-diamine] | 16
34 | COc1cccc(C2(N)CCc3nc(C(C)=O)sc3C2)c1 (racemic) [rac-A314, 1-(6-amino-6-(3-methoxyphenyl)-4,5,6,7-tetrahydrobenzo[d]thiazol-2-yl)ethan-1-one hydrochloride] | 5.6
35 | COc1cccc(C2(N)CCc3nc(C(N)=O)sc3C2)c1 (racemic) [rac-A315, 6-amino-6-(3-methoxyphenyl)-4,5,6,7-tetrahydrobenzo[d]thiazole-2-formamide] | 6.8
